The assay deals with T1, GPR6 receptor expressed in CHO-K1 cells (Homo sapiens, UniProt P46095).
T1 construct: expressed in transfected cells
In words: In vitro inhibition of cAMP (EC50), cell-based HTRF cAMP assay. The note with it: inhibition of constitutive cAMP activity of GPR6 in CHO-K1 cells. Here is the method: I. In Vitro Inhibition of cAMP (EC50)
This cell based assay measures the ability of test compounds to inhibit the constitutive cAMP activity of GPR6 receptor expressed in CHO-K1 cells. CHO cells are stably expressed with GPR6 receptor, whose expression is controlled by a tetracycline inducible element. The cells were cultured in medium containing F12K, 10% FBS, 1% Penn/Strep, 200 μg/mL Hygromycin. GPR6 receptor expression is induced for 20 hours with 2 μg/mL doxycycline (Sigma D9891) in growth media. After addition of doxycycline, the cells are plated at a density of 450-750 cells per well in 96-well half-volume black tissue culture plates (Costar) and placed in an incubator (37° C., 5% CO2) for 20 hours prior to cAMP assays.
Culture media is removed from the cells and they are washed with 50 μL/well of Ringer's Buffer (MgCl2 0.047 mg/mL, NaH2PO4 0.18 mg/mL, Na2HPO4 0.1 mg/mL, KCl 0.34 mg/mL, NaHCO3 1.26 mg/mL, D-glucose 1.8 mg/mL, NaCl 7 mg/mL; pH=7.4). The test compounds are suspended in DMSO, diluted in Ringer's Buffer containing 0.5% fatty acid free BSA plus 300 μM IBMX, and incubated on the cells for 45 minutes at 37° C. and 5% CO2. After incubation, the cells are conditioned for 10 minutes at room temp with Eu-cAMP tracer solution from a Perkin Elmer Lance HTRF Ultra cAMP assay kit (TRF0263). Then ULight™-anti-cAMP solution from the Lance HTRF kit is added and incubated on a shaker at room temp for 1 hour prior to HTRF detection in a Perkin Elmer Envision plate reader. EC50 curves are generated with a four-parameter logistic equation using GraphPad Prism 5.03.
Table 1 lists biological assay data (in vitro inhibition of cAMP) for some of the compounds shown in the examples, where larger pEC50 values represent higher activity or potency. All of the compounds shown in Table 1 were tested in accordance with a cell-based assay which measures the ability of test compounds to inhibit the constitutive cAMP activity of GPR6 receptor expressed in CHO-K1 cells (reported as pEC50). The assay is described in the specification under the heading “In vitro inhibition of cAMP (EC50).”
Background: In TR-FRET formats the signal depends on donor and acceptor labels being close together.

T1 sequence (P46095 whole entry): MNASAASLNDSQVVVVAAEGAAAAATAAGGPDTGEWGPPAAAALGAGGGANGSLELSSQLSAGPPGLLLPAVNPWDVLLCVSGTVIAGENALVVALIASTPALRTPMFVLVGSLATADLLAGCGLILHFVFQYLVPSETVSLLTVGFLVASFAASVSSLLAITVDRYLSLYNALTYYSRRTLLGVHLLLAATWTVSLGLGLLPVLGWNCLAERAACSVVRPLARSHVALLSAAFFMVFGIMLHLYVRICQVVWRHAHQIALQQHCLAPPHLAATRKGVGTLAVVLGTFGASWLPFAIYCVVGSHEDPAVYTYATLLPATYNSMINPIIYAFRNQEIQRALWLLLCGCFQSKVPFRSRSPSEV

With `CCCCn1cccc(C(=O)Nc2cc(C#N)ccc2N2CCC(Oc3ccc(F)cc3F)CC2)c1=O` [Example 179, 1-butyl-N-(5-cyano-2-(4-(2,4-difluorophenoxy)piperidin-1-yl)phenyl)-2-oxo-1,2-dihydropyridine-3-carboxamide], the “pEC50, in vitro inhibition of cAMP” value is given as 6.2.
For `COc1ccc(OC2CCN(c3ccc(C#N)cc3NC(=O)c3cccn(C)c3=O)CC2)c(F)c1` [Example 29, N-(5-cyano-2-(4-(2-fluoro-4-methoxyphenoxy)piperidin-1-yl)phenyl)-1-methyl-2-oxo-1,2-dihydropyridine-3-carboxamide], the “pEC50, in vitro inhibition of cAMP” value was determined as 7.3.
Next, `COc1ncccc1C(=O)Nc1cc(C#N)ccc1N1CCN(C(=O)c2ccc(F)cc2)CC1` [Example 286, N-(5-cyano-2-(4-(4-fluorobenzoyl)piperazin-1-yl)phenyl)-2-methoxynicotinamide]: 6.7; `COc1cc(F)ccc1CN1CCN(c2ncc(C#N)cc2NC(=O)c2cn(C)nc2OC)CC1` [Example 155, N-(5-cyano-2-(4-(4-fluoro-2-methoxybenzyl)piperazin-1-yl)pyridin-3-yl)-3-methoxy-1-methyl-1H-pyrazole-4-carboxamide]: 6.3.
The value for `Cn1cccc(C(=O)Nc2cc(C#N)ccc2N2CCC(Oc3cccc(F)c3F)CC2)c1=O` [Example 9, N-(5-cyano-2-(4-(2,3-difluorophenoxy)piperidin-1-yl)phenyl)-1-methyl-2-oxo-1,2-dihydropyridine-3-carboxamide] was 6.1.
As for `COc1nn(C)cc1C(=O)Nc1cc(C#N)cnc1N1CCN(Cc2ccc(C#N)cc2)CC1` [Example 153, N-(5-cyano-2-(4-(4-cyanobenzyl)piperazin-1-yl)pyridin-3-yl)-3-methoxy-1-methyl-1H-pyrazole-4-carboxamide], the “pEC50, in vitro inhibition of cAMP” value was 6.4.
Next, `CCn1c(C)cc(C)c(C(=O)Nc2cc(C#N)ccc2N2CCC(Oc3ccc(F)cc3F)CC2)c1=O` [Example 202]: 6.3; `N#Cc1ccc(N2CCC(Oc3ccc(F)cc3F)CC2)c(NC(=O)c2ncoc2C2CC2)c1` [Example 111]: 5.5.
The value for `CC(C)n1cc(Br)cc(C(=O)Nc2cc(C#N)ccc2N2CCC(Oc3ccc(F)cc3F)CC2)c1=O` [Example 182, 5-bromo-N-(5-cyano-2-(4-(2,4-difluorophenoxy)piperidin-1-yl)phenyl)-1-isopropyl-2-oxo-1,2-dihydropyridine-3-carboxamide] was 6.3.
Take `CC(C)c1ccc(C(=O)Nc2cc(C#N)ccc2N2CCC(Oc3ccc(F)cc3F)CC2)c(=O)n1C` [Example 186]: the “pEC50, in vitro inhibition of cAMP” value was 6.4.
Regarding `COc1ncccc1C(=O)Nc1cc(C#N)ccc1N1CCN(Cc2ccc(F)cc2)CC1` [Example 91, N-(5-cyano-2-(4-(4-fluorobenzyl)piperazin-1-yl)phenyl)-2-methoxynicotinamide], the “pEC50, in vitro inhibition of cAMP” value came to 7.1.
With `Cn1cc2ccc(NC(=O)c3ccccn3)c(N3CCC(Oc4ccc(F)cc4F)CC3)c2n1` [Example 149, N-(7-(4-(2,4-difluorophenoxy)piperidin-1-yl)-2-methyl-2H-indazol-6-yl)picolinamide], the “pEC50, in vitro inhibition of cAMP” value is reported as 5.8.
Next, `Cn1cccc(C(=O)Nc2cc(S(C)(=O)=O)ccc2N2CCC(Oc3ccc(F)cc3F)CC2)c1=O` [Example 3, N-(2-(4-(2,4-difluorophenoxy)piperidin-1-yl)-5-(methylsulfonyl)phenyl)-1-methyl-2-oxo-1,2-dihydropyridine-3-carboxamide]: 7.5.
The value for `Cc1onc(C(=O)Nc2cc(C#N)ccc2N2CCC(Oc3ccc(F)cc3F)CC2)c1C` [Example 131, N-(5-cyano-2-(4-(2,4-difluorophenoxy)piperidin-1-yl)phenyl)-4,5-dimethylisoxazole-3-carboxamide] was 7.0; that for `COc1ccncc1C(=O)Nc1cc(C(=O)N(C)C)ncc1N1CCC(Oc2ccc(F)cc2F)CC1` [Example 262, 5-(4-(2,4-difluorophenoxy)piperidin-1-yl)-4-(4-methoxynicotinamido)-N,N-dimethylpicolinamide] was 7.3.
The value for `Cc1nc(C(=O)Nc2cc(C#N)ccc2N2CCC(Oc3ccc(F)cc3F)CC2)co1` [Example 43, N-(5-cyano-2-(4-(2,4-difluorophenoxy)piperidin-1-yl)phenyl)-2-methyloxazole-4-carboxamide] was 6.1.
Take `Cc1ccc2ncc(C(=O)Nc3cc(C#N)ccc3N3CCC(Oc4ccc(F)cc4F)CC3)c(=O)n2c1` [Example 201]: the “pEC50, in vitro inhibition of cAMP” value is 6.8.
The value for `COc1ncc(Cl)cc1C(=O)Nc1cc(C#N)ccc1N1CCC(Oc2ccc(F)cc2F)CC1` [Example 193, 5-chloro-N-(5-cyano-2-(4-(2,4-difluorophenoxy)piperidin-1-yl)phenyl)-2-methoxynicotinamide] was 5.9; that for `N#Cc1ccc(N2CCC(Oc3ccc(F)cc3F)CC2)c(NC(=O)c2ccsn2)c1` [Example 128, N-(5-cyano-2-(4-(2,4-difluorophenoxy)piperidin-1-yl)phenyl)isothiazole-3-carboxamide] was 6.6; that for `Cn1cccc(C(=O)Nc2cc(C#N)ccc2N2CCC(Oc3ccc(F)cc3)CC2)c1=O` [Example 4, N-(5-cyano-2-(4-(4-fluorophenoxy)piperidin-1-yl)phenyl)-1-methyl-2-oxo-1,2-dihydropyridine-3-carboxamide] was 6.7.
On to `COc1ncccc1C(=O)Nc1cc(C#N)ncc1N1CCC(Oc2ccc(F)cc2F)CC1` [Example 261, N-(2-cyano-5-(4-(2,4-difluorophenoxy)piperidin-1-yl)pyridin-4-yl)-2-methoxynicotinamide], for which the “pEC50, in vitro inhibition of cAMP” value is 7.2.
Next, `Cc1cc(C(=O)Nc2cc(C#N)ccc2N2CCC(Oc3ccc(F)cc3F)CC2)nn1C` [Example 113, N-(5-cyano-2-(4-(2,4-difluorophenoxy)piperidin-1-yl)phenyl)-1,5-dimethyl-1H-pyrazole-3-carboxamide]: 6.9; `O=C(Nc1ccccc1N1CCN(C(=O)c2ccc(Cl)cc2)CC1)c1ncccn1` [Example 258, N-(2-(4-(4-chlorobenzoyl)piperazin-1-yl)phenyl)pyrimidine-2-carboxamide]: 4.9.
Next, `COc1ccccc1CN1CCN(c2ccc(C#N)cc2NC(=O)c2cccnc2OC)CC1` [Example 247, N-(5-cyano-2-(4-(2-methoxybenzyl)piperazin-1-yl)phenyl)-2-methoxynicotinamide]: 5.9; `COc1ncccc1C(=O)Nc1cc(C(=O)N(C)C)c(C#N)cc1N1CCC(Oc2ccc(F)cc2F)CC1` [Example 272]: 7.4; `COc1nccc(Cl)c1C(=O)Nc1cc(C#N)ccc1N1CCC(Oc2ccc(F)cc2F)CC1` [Example 223, 4-chloro-N-(5-cyano-2-(4-(2,4-difluorophenoxy)piperidin-1-yl)phenyl)-2-methoxynicotinamide]: 5.6.
Next, `COc1nc(C)ccc1C(=O)Nc1cnc(C#N)nc1N1CCC(Oc2ccc(F)cc2F)CC1` [Example 280, N-(2-cyano-4-(4-(2,4-difluorophenoxy)piperidin-1-yl)pyrimidin-5-yl)-2-methoxy-6-methylnicotinamide]: 7.1; `COc1c(Cl)ccc(Cl)c1C(=O)Nc1cc(C#N)ccc1N1CCC(Oc2ccc(F)cc2F)CC1` [Example 206, 3,6-dichloro-N-(5-cyano-2-(4-(2,4-difluorophenoxy)piperidin-1-yl)phenyl)-2-methoxybenzamide]: 5.1.
For `COc1ccc(C(C)(C)C)cc1C(=O)Nc1cc(C#N)ccc1N1CCC(Oc2ccc(F)cc2F)CC1` [Example 209, 5-(tert-butyl)-N-(5-cyano-2-(4-(2,4-difluorophenoxy)piperidin-1-yl)phenyl)-2-methoxybenzamide], the “pEC50, in vitro inhibition of cAMP” value stood at 6.1.
The value for `COc1ncc(F)cc1C(=O)Nc1ccc(C#N)nc1N1CCC(Oc2ccc(F)cc2F)CC1` [Example 255, N-(6-cyano-2-(4-(2,4-difluorophenoxy)piperidin-1-yl)pyridin-3-yl)-5-fluoro-2-methoxynicotinamide] was 7.3; that for `COc1ncccc1C(=O)Nc1cc(C(=O)N(C)C)cnc1N1CCC(Oc2ccc(F)cc2F)CC1` [Example 148, 6-(4-(2,4-difluorophenoxy)piperidin-1-yl)-5-(2-methoxynicotinamido)-N,N-dimethylnicotinamide] was 7.2.
